Results taken from the supplement of paper PMC13380429.

Tests used:
Details in all cases: 72 h
[1] = system: Caco-2; assay: cell viability relative to DMSO; higher = less toxic
[2] = system: Calu-3; assay: as above
[3] = system: HepG2; assay: as above
[4] = system: U2OS; assay: as above
[5] = system: Vero E6; assay: as above
[6] = system: Caco-2; assay: relative viability EC50 (midpoint between 100% and the lowest measured viability); higher = less toxic
[7] = system: Calu-3; assay: as above
[8] = system: HepG2; assay: as above
[9] = system: U2OS; assay: as above
[10] = system: Vero E6; assay: as above
[11] = system: Caco-2; assay: drug sensitivity score (DSS) for viability; higher = more toxic; extreme values may be limits of the assay
[12] = system: Calu-3; assay: as above
[13] = system: HepG2; assay: as above
[14] = system: U2OS; assay: as above
[15] = system: Vero E6; assay: as above

Compound | cell viability ([1]; 1 nM) [%] | cell viability ([1]; 10 nM) [%] | cell viability ([1]; 100 nM) [%] | cell viability ([1]; 1000 nM) [%] | cell viability ([1]; 10000 nM) [%] | cell viability ([2]; 1 nM) [%] | cell viability ([2]; 10 nM) [%] | cell viability ([2]; 100 nM) [%] | cell viability ([2]; 1000 nM) [%] | cell viability ([2]; 10000 nM) [%] | cell viability ([3]; 1 nM) [%] | cell viability ([3]; 10 nM) [%] | cell viability ([3]; 100 nM) [%] | cell viability ([3]; 1000 nM) [%] | cell viability ([3]; 10000 nM) [%] | cell viability ([4]; 1 nM) [%] | cell viability ([4]; 10 nM) [%] | cell viability ([4]; 100 nM) [%] | cell viability ([4]; 1000 nM) [%] | cell viability ([4]; 10000 nM) [%] | cell viability ([5]; 1 nM) [%] | cell viability ([5]; 10 nM) [%] | cell viability ([5]; 100 nM) [%] | cell viability ([5]; 1000 nM) [%] | cell viability ([5]; 10000 nM) [%] | relative viability EC50 [6] [µM] | relative viability EC50 [7] [µM] | relative viability EC50 [8] [µM] | relative viability EC50 [9] [µM] | relative viability EC50 [10] [µM] | drug sensitivity score [11] | drug sensitivity score [12] | drug sensitivity score [13] | drug sensitivity score [14] | drug sensitivity score [15]
CCN(CC)C(=O)/C(C#N)=C/c1cc(O)c(O)c([N+](=O)[O-])c1 [entacapone] | 93.7 | 98.4 | 95.5 | 96 | 93.2 | 92.3 | 86.9 | 94.7 | 98.5 | 101 | 98.3 | 84.1 | 102 | 92.2 | 100 | 96.8 | 102 | 98 | 98.9 | 99.7 | 100 | 99.2 | 93.2 | 96 | 100 | > 10 | > 10 | > 10 | > 10 | > 10 | 0 | 0 | 0 | 0 | 0
CC[C@@H]1/C=C(\C)C[C@H](C)C[C@H](OC)[C@H]2O[C@@](O)(C(=O)C(=O)N3CCCC[C@H]3C(=O)O[C@H](/C(C)=C/[C@@H]3CC[C@@H](O)[C@H](OC)C3)[C@H](C)[C@@H](O)CC1=O)[C@H](C)C[C@@H]2OC [ascomycin] | 117 | 97.8 | 95 | 100 | 84.5 | 98.3 | 98.9 | 90.8 | 107 | 107 | 124 | 109 | 112 | 96 | 104 | 96 | 104 | 97.8 | 98.4 | 95.2 | 107 | 100 | 98.1 | 93.5 | 102 | > 10 | > 10 | > 10 | > 10 | > 10 | 0.2 | 0 | 0 | 0 | 0
FC(F)(F)c1ccc(N2CCNCC2)nc1Cl | 101 | 98.5 | 107 | 104 | 96.4 | 96.1 | 105 | 93.7 | 106 | 107 | 108 | 96.2 | 92 | 106 | 104 | 97.4 | 99.9 | 95.2 | 100 | 92.7 | 101 | 98 | 95.9 | 95.6 | 95.2 | > 10 | > 10 | > 10 | > 10 | > 10 | 0 | 0 | 0 | 0 | 0
CC(C)c1c2cc(-c3ccnc(N[C@H]4CC[C@H](NC5CCOCC5)CC4)n3)ccc2nn1C | 94.6 | 96.6 | 94.8 | 53.6 | 31.3 | 105 | 107 | 108 | 60.3 | 43.3 | 98.9 | 101 | 83.2 | 10.1 | 9.8 | 99 | 95 | 99.8 | 42.8 | 4.6 | 93.8 | 96.7 | 88 | 86 | 4.7 | 0.589 | 0.719 | 0.18 | 0.851 | 2 | 9.6 | 7.7 | 19.1 | 12 | 7.6
CCCCNc1ncc2c(-c3ccc(CN4CCN(C)CC4)cc3)cn([C@H]3CC[C@H](O)CC3)c2n1 [UNC2025] | 88.5 | 103 | 97.3 | 95.5 | 33.6 | 98.5 | 99.7 | 100 | 87.1 | 34.2 | 88.6 | 94 | 92 | 54.7 | 5.2 | 98.4 | 103 | 97 | 60.3 | 0.3 | 95.3 | 101 | 100 | 73.3 | 34.6 | 2.62 | 1.75 | 1.02 | 1.21 | 1.16 | 4.3 | 5.7 | 10.5 | 10.5 | 7.2
O=C(O)Cc1ccc(OCc2ccccc2)c(Cl)c1 [benzofenac] | 96.9 | 114 | 112 | 104 | 107 | 97.6 | 109 | 98.9 | 111 | 93.4 | 98.5 | 92.7 | 94.3 | 87.1 | 93.8 | 98.2 | 98.2 | 99.3 | 100 | 94.4 | 103 | 105 | 106 | 99.6 | 96.1 | > 10 | > 10 | > 10 | > 10 | > 10 | 0 | 0 | 0 | 0 | 0
Cc1ccc(Cl)c(OC[C@H](O)CNC(C)C)c1 [1-(2-chloro-5-methylphenoxy)-3-(isopropylamino)-2-propanol] | 95.1 | 101 | 99.1 | 91.1 | 94.8 | 96.6 | 101 | 103 | 108 | 102 | 93.5 | 100 | 108 | 104 | 103 | 104 | 97.2 | 101 | 106 | 101 | 104 | 103 | 95.9 | 104 | 92.8 | > 10 | > 10 | > 10 | > 10 | > 10 | 0 | 0 | 0 | 0 | 0
CCCCCCCCCCCCCCCCCCN(CCCCCCCCCCCCCCCCCC)CCCN(CCO)CCO [avridine] | 106 | 97 | 90.4 | 105 | 146 | 91.5 | 101 | 101 | 95.7 | 108 | 109 | 98.1 | 98 | 106 | 108 | 95.7 | 101 | 98.9 | 104 | 100 | 104 | 101 | 106 | 98.5 | 102 | > 10 | > 10 | > 10 | > 10 | > 10 | 0 | 0 | 0 | 0 | 0
O[C@H]1CC[C@H](Nc2nc(-c3ccccc3)nc3[nH]ccc23)CC1 [SLV-320] | 102 | 94.4 | 102 | 102 | 102 | 99.5 | 93.9 | 99.5 | 90.8 | 102 | 92.8 | 106 | 94.9 | 99.2 | 91.7 | 99.5 | 94.4 | 97.7 | 95.7 | 96.9 | 104 | 109 | 101 | 99 | 91.4 | > 10 | > 10 | > 10 | > 10 | > 10 | 0 | 0 | 0 | 0 | 0
CC(C)N(CC[C@H](c1ccccc1)c1cc(CO)ccc1O)C(C)C [5-hydroxymethyl-tolterodine] | 89 | 87.9 | 108 | 102 | 99.6 | 104 | 89.3 | 96.7 | 98.6 | 99.3 | 104 | 91.6 | 102 | 96.5 | 112 | 101 | 99.1 | 105 | 91.8 | 95.9 | 95.7 | 96.2 | 96.6 | 98.2 | 101 | > 10 | > 10 | > 10 | > 10 | > 10 | 0 | 0 | 0 | 0 | 0
CC(C)Oc1ccc(-c2nc(-c3cccc4c3CC[C@H]4NCCC(=O)O)no2)cc1C#N [RP-001] | 95 | 94.7 | 94.1 | 95.7 | 98.2 | 95.9 | 99.8 | 87.5 | 101 | 102 | 96.9 | 97.6 | 94.2 | 104 | 110 | 102 | 95.1 | 103 | 106 | 112 | 95 | 97.7 | 90.2 | 101 | 104 | > 10 | > 10 | > 10 | > 10 | > 10 | 0 | 0 | 0 | 0 | 0
CNC(=O)Oc1ccccc1OC(C)C [propoxur] | 99.6 | 84.6 | 104 | 88.1 | 101 | 102 | 97.1 | 86.2 | 94.4 | 104 | 105 | 93.3 | 87.5 | 93.8 | 99.7 | 101 | 97.7 | 95.7 | 94.9 | 98.2 | 95 | 106 | 102 | 88.2 | 85.4 | > 10 | > 10 | > 10 | > 10 | > 10 | 0 | 0 | 0 | 0 | 1
CC(=O)N(CC(C)C(=O)O)c1c(I)cc(I)c(N)c1I (stereo not given) [iocetamic-acid] | 101 | 99.3 | 90.6 | 95.5 | 99.9 | 97.3 | 98.6 | 91.5 | 90.3 | 95.4 | 93 | 102 | 99.8 | 102 | 96.1 | 98.2 | 103 | 104 | 102 | 101 | 107 | 103 | 97.3 | 105 | 101 | > 10 | > 10 | > 10 | > 10 | > 10 | 0 | 0 | 0 | 0 | 0
O=C(O)c1ccccc1C(=O)Nc1ccc(-c2ccccc2)cc1 [kartogenin] | 99.2 | 90.6 | 89.7 | 94.2 | 93.7 | 98.2 | 101 | 105 | 102 | 103 | 98.4 | 98.4 | 92.7 | 97.3 | 106 | 103 | 104 | 100 | 98.6 | 100 | 103 | 99 | 105 | 97.7 | 98.1 | > 10 | > 10 | > 10 | > 10 | > 10 | 0 | 0 | 0 | 0 | 0
